Format in all cases: binding
The target of one test is T1, LGR4 (Homo sapiens, UniProt Q9BXB1).
T1 construct: purchased Promega (in-house HiBiT-GPCR construct library, NanoBRET)
T1 sequence (Q9BXB1 25-951): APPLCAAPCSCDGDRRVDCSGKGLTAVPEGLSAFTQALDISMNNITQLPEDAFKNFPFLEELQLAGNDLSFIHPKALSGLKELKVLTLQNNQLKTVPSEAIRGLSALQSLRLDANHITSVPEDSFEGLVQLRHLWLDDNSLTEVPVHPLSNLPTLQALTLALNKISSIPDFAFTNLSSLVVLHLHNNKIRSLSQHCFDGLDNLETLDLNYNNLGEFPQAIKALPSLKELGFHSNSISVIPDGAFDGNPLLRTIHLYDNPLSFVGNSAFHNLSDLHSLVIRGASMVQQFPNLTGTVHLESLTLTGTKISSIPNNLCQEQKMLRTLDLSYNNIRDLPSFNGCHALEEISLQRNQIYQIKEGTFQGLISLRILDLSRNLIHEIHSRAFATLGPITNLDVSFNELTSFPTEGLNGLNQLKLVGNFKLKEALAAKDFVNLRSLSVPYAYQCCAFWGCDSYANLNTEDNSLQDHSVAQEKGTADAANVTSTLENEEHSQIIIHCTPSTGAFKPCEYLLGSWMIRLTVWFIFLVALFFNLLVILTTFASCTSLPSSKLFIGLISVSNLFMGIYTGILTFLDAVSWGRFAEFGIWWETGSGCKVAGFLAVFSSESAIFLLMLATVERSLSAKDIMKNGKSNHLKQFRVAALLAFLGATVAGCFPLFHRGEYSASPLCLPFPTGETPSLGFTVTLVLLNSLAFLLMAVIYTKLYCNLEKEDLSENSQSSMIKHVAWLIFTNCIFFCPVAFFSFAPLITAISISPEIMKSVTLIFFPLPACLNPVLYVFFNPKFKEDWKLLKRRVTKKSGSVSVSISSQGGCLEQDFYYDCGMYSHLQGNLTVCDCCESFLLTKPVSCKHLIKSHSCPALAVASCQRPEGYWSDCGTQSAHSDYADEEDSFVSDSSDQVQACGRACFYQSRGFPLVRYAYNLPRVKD
Kind of test: NanoBRET screen HiBiT-LGR4 in HEK293. The procedure:
(§1) Each tracer candidate was screened across the entire library of HiBiT-GPCR constructs using NanoBRET as the detection modality. As depicted in Figure 4A, the specificity of interactions was evaluated through decrease in BRET due to competitive displacement of a bound tracer by excess parental compound. Each tracer was analyzed for binding to each HiBiT-GPCR fusion in the absence and in the presence of competing parental compound. Briefly, HEK293 cells were transfected with HiBiT-GPCR constructs diluted into promoterless DNA to reduce expression and maximize translocation to the cell surface. Each tracer candidate was then screened at concentrations of 1 μM and 0.1 μM across cells expressing these fusions. Cells were treated for 1.5 h with tracer either alone or in the presence of 20 μM competing parental compound (i.e., control). BRET was measured upon addition of purified LgBiT and subsequent complementation with HiBiT genetically fused to a GPCR. The specificity of interactions was assessed through a decrease in BRET signal due to competitive displacement of the bound tracer. To further gauge the robustness of these interactions, the fold response over the control (i.e., BRETtracer/BRETcontrol) was calculated. We chose a 1.5-fold response, which translates to ≥7-fold signal over noise as the minimal threshold required to score an interaction as positive. […]. Below we highlight the screening results obtained for our exemplary fluorescent tracers based on Clozapine, Amitriptyline and AZD1283.
(§2) HiBiT-GPCR DNA constructs were diluted in 10 mM Tris pH 8 to a final concentration of 0.01 μg/μL, arrayed in 96-well plates and stored at −20 °C. For transfection, HEK293 cells were suspended in Opti-MEM (without phenol red) supplemented with 2% fetal bovine serum (Seradigm) and 100 units/mL penicillin–streptomycin (Gibco) at a final concentration of 220,000 cells/mL and dispensed into white 96-well plates at 90 μL/well. Subsequent transfections and screens were carried using an Agilent Bravo Automated Liquid Handling Platform. First, the 96-well HiBiT DNA arrays were diluted 25-fold in Opti-MEM (without serum or phenol red) to a final concentration of 0.0004 μg/μL and 20 μL of the diluted DNAs were transferred into new 96-well plates. Next, promoterless carrier DNA (1 μg/μL) was diluted 25-fold (0.04 μg/μL) and then dispensed into the diluted arrays at 20 μL/well. Following brief mixing, Viafect transfection reagent (Promega) diluted 16-fold into Opti-MEM was dispensed into the plates at 40 μL/well. After mixing by pipetting, plates were incubated for 10 min on the pipetting station deck. The DNA-transfection reagent complexes were then added to plates containing cells. To facilitate the screen, 10 μL of DNA-transfection reagent complexes were added in duplicates to the top 4 and bottom 4 rows, resulting in two identical 48-well arrays per plate. Plates with transfected cells were incubated for 18–20 h at 37 °C/5% CO2. A screen of each tracer across the entire library using two different concentrations requires duplicate plates of transfected cells. Depending on the number of tracers being screened, transfections can be scaled up using the same ratios. The next day, for each tracer, four 20× screening solutions in tracer dilution buffer (Promega) were prepared: two duplicates at final concentration of 20 μM and two duplicates at a final concentration of 2 μM. A competing unmodified compound was added to one of each duplicate at a final concentration of 400 μM. The four resulting solutions were diluted 4-fold in Opti-MEM without serum or phenol red to generate 5× solutions (5 µM and 0.5 µM tracer +/− 100 μM competing compound). To screen the library, a BioTek MultiFlo FX liquid dispenser was used to dispense 22.5 µL of tracer solution to the top 4 rows and 22.5 µL tracer + competing compound solution to the 4 bottom rows. Plates were briefly mixed on an orbital shaker and incubated for 1.5 h at room temperature. […]
(In general: In BRET a luciferase serves as donor, and the signal depends on an acceptor being close.)

Another test addresses T2, FZD1 (Homo sapiens, UniProt Q9UP38).
T2 construct: purchased Promega (in-house HiBiT-GPCR construct library, NanoBRET)
Kind of test: NanoBRET screen HiBiT-FZD1 in HEK293. The procedure:
as §1, §2

A further test addresses T3, NTSR1 (Homo sapiens, UniProt P30989).
T3 construct: purchased Promega (in-house HiBiT-GPCR construct library, NanoBRET)
Kind of test: NanoBRET screen HiBiT-NTSR1 in HEK293. The procedure:
as §1, §2

For the next test, the target named is T4, GALR2 (Homo sapiens, UniProt O43603).
T4 construct: purchased Promega (in-house HiBiT-GPCR construct library, NanoBRET)
T4 sequence (O43603 1-387): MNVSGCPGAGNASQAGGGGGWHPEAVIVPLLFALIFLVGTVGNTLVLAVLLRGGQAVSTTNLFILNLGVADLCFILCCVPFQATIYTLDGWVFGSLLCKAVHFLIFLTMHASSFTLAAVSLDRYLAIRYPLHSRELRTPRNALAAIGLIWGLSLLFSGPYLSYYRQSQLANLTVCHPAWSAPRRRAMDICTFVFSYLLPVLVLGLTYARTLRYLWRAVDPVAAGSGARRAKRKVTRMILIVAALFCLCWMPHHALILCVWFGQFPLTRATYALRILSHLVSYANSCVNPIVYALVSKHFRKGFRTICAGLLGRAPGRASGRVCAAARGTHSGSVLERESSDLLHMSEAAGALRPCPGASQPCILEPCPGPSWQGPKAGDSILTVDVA
Kind of test: NanoBRET screen HiBiT-GALR2 in HEK293. The procedure: as §1, §2

The structures appear in SMILES notation.

T2 sequence (Q9UP38 70-647): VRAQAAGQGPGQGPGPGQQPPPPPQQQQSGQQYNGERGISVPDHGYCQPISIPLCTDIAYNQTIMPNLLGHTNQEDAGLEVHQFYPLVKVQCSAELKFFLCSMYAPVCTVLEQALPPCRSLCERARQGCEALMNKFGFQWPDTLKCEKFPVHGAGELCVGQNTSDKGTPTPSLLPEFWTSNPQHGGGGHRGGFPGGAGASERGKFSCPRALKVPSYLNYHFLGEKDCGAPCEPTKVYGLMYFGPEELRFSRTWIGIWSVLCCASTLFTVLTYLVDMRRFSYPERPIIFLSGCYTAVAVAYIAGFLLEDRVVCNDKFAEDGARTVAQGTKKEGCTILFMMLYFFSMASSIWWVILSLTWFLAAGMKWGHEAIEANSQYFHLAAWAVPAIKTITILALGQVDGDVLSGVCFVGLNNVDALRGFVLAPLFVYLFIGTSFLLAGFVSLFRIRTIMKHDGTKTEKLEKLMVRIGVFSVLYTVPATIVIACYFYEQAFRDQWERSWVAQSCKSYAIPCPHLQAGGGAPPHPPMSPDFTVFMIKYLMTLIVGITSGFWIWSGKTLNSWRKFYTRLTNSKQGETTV
T3 sequence (P30989 whole entry): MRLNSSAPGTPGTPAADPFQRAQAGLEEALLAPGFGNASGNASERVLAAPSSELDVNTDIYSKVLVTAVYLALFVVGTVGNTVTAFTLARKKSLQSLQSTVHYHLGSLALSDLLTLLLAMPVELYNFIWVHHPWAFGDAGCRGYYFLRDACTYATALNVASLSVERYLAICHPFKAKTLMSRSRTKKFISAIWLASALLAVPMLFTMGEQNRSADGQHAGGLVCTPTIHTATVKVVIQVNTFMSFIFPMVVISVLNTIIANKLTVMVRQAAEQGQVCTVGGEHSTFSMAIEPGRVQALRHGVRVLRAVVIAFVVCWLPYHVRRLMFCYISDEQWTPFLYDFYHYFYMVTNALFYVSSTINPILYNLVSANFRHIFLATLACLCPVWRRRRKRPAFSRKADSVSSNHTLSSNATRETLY

Consider `O=C(CCc1ccc2n1[B-](F)(F)[N+]1=C(c3ccc[nH]3)C=CC1=C2)NCc1ccc(C(=O)NCCOCCC(=O)N[C@@H]2CC[C@@]3(O)[C@H]4Cc5ccc(O)c6c5[C@@]3(CCN4CC3CC3)[C@H]2O6)cc1` [Naltrexone-3-NB590], for which the “NanoBRET Fold Response” value on LGR4 (LGR4, tracer 0.1μM) came to 0.94; on LGR4 (LGR4, tracer 1μM), 0.87; at FZD1 (FZD1, tracer 0.1μM), 1.07; at FZD1 (FZD1, tracer 1μM), 1.05; on NTSR1 (NTSR1, tracer 0.1μM) it was 1.07; at NTSR1 (NTSR1, tracer 1μM) it was 0.93. Also, the “NanoBRET Fold Response” value on GALR2 (GALR2, tracer 0.1μM) was determined as 1.00; at GALR2 (GALR2, tracer 1μM), 0.98.
Turning to `CN1CCN(C2=Nc3cc(Cl)ccc3N(CC(=O)NCCOCCOCCOCCOCCNC(=O)CCc3ccc4n3[B-](F)(F)[N+]3=C(c5ccc[nH]5)C=CC3=C4)c3ccccc32)CC1` [Clozapine-c-2-NB590], the “NanoBRET Fold Response” value on LGR4 (LGR4, 0.1μM tracer) is 0.96; on LGR4 (LGR4, 1μM tracer), 1.03; on FZD1 (FZD1, 0.1μM tracer), 1.02; at FZD1 (FZD1, 1μM tracer) it was 1.06; on NTSR1 (NTSR1, 0.1μM tracer), 1.02; at NTSR1 (NTSR1, 1μM tracer), 1.01. Further, the “NanoBRET Fold Response” value at GALR2 (GALR2, 0.1μM tracer) is 1.00; on GALR2 (GALR2, 1μM tracer) it was 1.05.
Take `O=C(CCOCCOCCOCCOCCNC(=O)CCc1ccc2n1[B-](F)(F)[N+]1=C(c3ccc[nH]3)C=CC1=C2)NCCCN1CCN(C2=Nc3cc(Cl)ccc3Nc3ccccc32)CC1` [Clozapine-a-2-NB590]: the “NanoBRET Fold Response” value is 1.02 at LGR4 (LGR4, 0.1μM tracer); 0.99 at LGR4 (LGR4, 1μM tracer); 0.98 at FZD1 (FZD1, 0.1μM tracer); 0.93 on FZD1 (FZD1, 1μM tracer); 0.97 at NTSR1 (NTSR1, 0.1μM tracer); 1.00 at NTSR1 (NTSR1, 1μM tracer). The “NanoBRET Fold Response” value at GALR2 (GALR2, 0.1μM tracer) was 1.09; on GALR2 (GALR2, 1μM tracer) it was 1.19.
Consider `CCOC(=O)c1cc(C#N)c(N2CCC(C(=O)NS(=O)(=O)Cc3ccccc3/C=C/C(=O)NCCNC(=O)CCc3ccc4n3[B-](F)(F)[N+]3=C(c5ccc[nH]5)C=CC3=C4)CC2)nc1C` [AZD1283-1-NB590], for which the “NanoBRET Fold Response” value on LGR4 (LGR4, 0.1μM) is on record as 1.01; on LGR4 (LGR4, 1μM), 0.97; at FZD1 (FZD1, 0.1μM), 1.06; at FZD1 (FZD1, 1μM) it was 1.07; at NTSR1 (NTSR1, 0.1μM), 1.04; on NTSR1 (NTSR1, 1μM), 1.07. For the same compound, the “NanoBRET Fold Response” value on GALR2 (GALR2, 0.1μM) stood at 1.09; on GALR2 (GALR2, 1μM) it was 1.04.
Consider `COc1ccc2[nH]c(-c3ccc(CNC(=O)CCOCCOCCOCCOCCNC(=O)CCc4ccc5n4[B-](F)(F)[N+]4=C(c6ccc[nH]6)C=CC4=C5)cc3)c(CCNC(C)=O)c2n1` [AzomelatoninICO9-2-NB590], for which the “NanoBRET Fold Response” value came to 1.10 at LGR4 (0.1μM tracer); 1.00 at LGR4 (1μM tracer); 0.86 on FZD1 (0.1μM tracer); 1.05 on FZD1 (1μM tracer); 0.90 at NTSR1 (0.1μM tracer); 0.78 at NTSR1 (1μM tracer). The “NanoBRET Fold Response” value at GALR2 (0.1μM tracer) worked out at 0.92; at GALR2 (1μM tracer), 1.01.
Consider `CCCn1c(=O)c2[nH]c(-c3ccc(OCC(=O)NCCNC(=O)CCOCCNC(=O)c4ccc(CNC(=O)CCc5ccc6n5[B-](F)(F)[N+]5=C(c7ccc[nH]7)C=CC5=C6)cc4)cc3)nc2n(CCC)c1=O` [XAC-3-NB590], for which the “NanoBRET Fold Response” value on LGR4 (LGR4, tracer 0.1μM) was 1.02; at LGR4 (LGR4, tracer 1μM), 0.99; at FZD1 (FZD1, tracer 0.1μM), 0.78; at FZD1 (FZD1, tracer 1μM), 1.33; on NTSR1 (NTSR1, tracer 0.1μM), 0.98; on NTSR1 (NTSR1, tracer 1μM), 1.02. Moreover, the “NanoBRET Fold Response” value worked out at 1.07 on GALR2 (GALR2, tracer 0.1μM) and 0.96 on GALR2 (GALR2, tracer 1μM).
`COc1ccccc1N1CCN(CCCCN2C(=O)c3ccc(CNC(=O)CCOCCNC(=O)c4ccc(CNC(=O)CCc5ccc6n5[B-](F)(F)[N+]5=C(c7ccc[nH]7)C=CC5=C6)cc4)cc3C2=O)CC1` [NAN-190-3-NB590]: the “NanoBRET Fold Response” value at LGR4 (LGR4, tracer 0.1μM) worked out at 0.88; on LGR4 (LGR4, tracer 1μM), 0.95; on FZD1 (FZD1, tracer 0.1μM), 0.83; on FZD1 (FZD1, tracer 1μM), 1.01; at NTSR1 (NTSR1, tracer 0.1μM), 0.90; on NTSR1 (NTSR1, tracer 1μM), 0.99. Also, the “NanoBRET Fold Response” value was found to be 1.03 at GALR2 (GALR2, tracer 0.1μM) and 1.00 at GALR2 (GALR2, tracer 1μM).
`CN(CCC=C1c2ccccc2CCc2ccccc21)C(=O)CCOCCOCCOCCOCCNC(=O)CCc1ccc2n1[B-](F)(F)[N+]1=C(c3ccc[nH]3)C=CC1=C2` [Amitriptyline-e-2-NB590]: the “NanoBRET Fold Response” value on FZD1 (tracer at 1μM) amounted to 0.98.
`CN(C)CCC=C1c2ccccc2CCc2ccc(C(=O)NCCNC(=O)CCOCCOCCOCCOCCNC(=O)CCc3ccc4n3[B-](F)(F)[N+]3=C(c5ccc[nH]5)C=CC3=C4)cc21` [Amitriptyline-a-2-NB590]: the “NanoBRET Fold Response” value at FZD1 (tracer at 0.1μM) turned out to be 0.92; at FZD1 (tracer at 1μM) it was 0.98; at NTSR1 (tracer at 0.1μM), 1.05; at NTSR1 (tracer at 1μM) it was 1.00; at GALR2 (tracer at 0.1μM), 1.02; at GALR2 (tracer at 1μM), 0.99.

The record behind these values is PMC8151276, “An Integrated Approach toward NanoBRET Tracers for Analysis of GPCR Ligand Engagement” (Molecules, 2021).
